This is an account of results in article PMC6006164, “Natural cyclopeptide RA-V inhibits the NF-κB signaling pathway by targeting TAK1” (Cell Death & Disease, 2018).

The IC50 is the point on the concentration scale where inhibition reaches its midpoint.

For test [1], the system named is NF-κB target genes, IL-8, MCP-1, and E-selectin. In words: Quantitative RT-PCR of TNF-α-induced NF-κB target genes. In kind it is cell-based, Homo sapiens. The settings on record: HEK293T or HeLa; RA-V 24 h, 10 ng/mL TNF-α 2 h; normalized to GADPH. The method, then: Fig. 1 RA-V inhibits TNF-α- and LPS-induced activation of NF-κB. a Chemical structure of RA-V. b RA-V inhibited the NF-κB signaling pathway in a dose-dependent manner. HEK293T or HeLa cells were transfected with the 5 × κB-luciferase and pTK-Renilla reporters. Twenty-four hours after transfection, the cells were incubated with various concentrations of RA-V for 6 h, and then treated with 10 ng/mL TNF-α for 2 h before the luciferase activity assay and MTT assay. c RA-V reduced TNF-α-induced expression of NF-κB target genes. HEK293T or HeLa cells were treated with various concentrations of RA-V for 24 h and stimulated with 10 ng/mL TNF-α for 2 h. The expression of the NF-κB target genes, IL-8, MCP-1, and E-selectin was measured by quantitative RT-PCR and normalized to GADPH expression. d RA-V inhibited TNF-α-induced p65 phosphorylation, IκBα phosphorylation and IκBα degradation. […] The expression of IL-6 was measured. h RA-V inhibited LPS-induced p65 phosphorylation, IκBα phosphorylation. […] The protein expression was measured. i RA-V inhibited LPS-induced IL-6 production. […] The expression of IL-6 was measured.
The total RNA was extracted from the indicated cells using TRIzol reagent (Invitrogen) according to the manufacturer’s instructions and then was reverse transcribed. The RNA concentrations were measured spectrophotometrically with a BioPhotometer (Eppendorf). […]

A further test deals with NF-κB signaling pathway. Put plainly: NF-κB-dependent luciferase reporter (5×κB-luciferase/pTK-Renilla), TNF-α-induced, HEK293T cells. It is filed as cell-based. To be noted: HEK293T; RA-V 6 h, then 10 ng/mL TNF-α 2 h; three independent experiments; read-out: IC50, NF-κB-dependent luciferase reporter. Here is the method: HEK293T or HeLa cells were seeded in 24-well plates and transiently transfected with the 5 × κB-luciferase and pTK-Renilla reporters using Lipofectamine 2000 (Invitrogen) for 18 h. The cells were then incubated with different concentrations of the compounds for the indicated times and subsequently stimulated with 10 ng/mL TNF-α for 2 h. The luciferase activity in the cell lysates was analyzed using the Dual Luciferase Reporter Assay System (Promega). The luciferase reporter assays were performed as previously described.
Supplementary Figure 1. RA-V has the best inhibitory effect on NF-κB signaling pathway among RAs. (a-b) HEK293T cells were transfected with the 5×κB-luciferase and pTK-Renilla reporters. Twenty-four hours after transfection, the cells were incubated with various concentrations of the indicated compounds for 6 h and then treated with 10 ng/ml TNF-α for 2 h before the luciferase activity assays. The data are presented as the means ± S.D. from three independent experiments. […]
Scheme for CB12 synthesis. (c) CB12 inhibited NF-κB reporter activity in a dose-dependent manner. The HEK293T cells were transfected with the 5×κB-luciferase and pTK-Renilla reporters. Twenty-four h after transfection, the cells were treated with various concentrations of CB12 for 6 h and then treated with 10 ng/ml TNF-α for 2 h before the luciferase activity assays. (d) […]
Supplementary Table 3: Screening data of small molecules
Category Parameter Description
Assay Type of assay Cell-based
Target NF-κB signaling pathway
Primary measurement Detection of Firefly luciferase enzyme activities and Renilla Luciferase expression
Key reagents 5 × κB-lucieferase and luciferase assay (Progema)
Assay protocol HEK293T cells were seeded in 24 -well plates and transiently transfected with 20 ng of 5×κB-luciferase and 2 ng of pTK-Renilla reporters using Lipofectamine
2000 (Invitrogen) for 18 h. The cells were then incubated with small molecules (10 μM) for 6 hours, and subsequently stimulated with 10 ng/ml TNF -α for 2 h. Luciferase activity of the cell lysates was analysed by the Dual Luciferase Reported Assay System
(Promega). The Firefly luciferase enzyme activities were determined for NF -κB signaling activities and normalized to Renilla Luciferase expression.
Library Library size approximately 200
Library composition natural and synthetic chemical compounds, including cyclopeptides, quinones and terpenes.
Source State Key Laboratory of Phytochemistry and Plant
Resources in West China, Kunming Institute of Botany, Chinese Academy of Sciences
Screen Format 24-well, Corning
Concentration(s) tested 10 μM
Reagent/ compound dispensing system Manual
Detection instrument and software Synergy 2 (BioTek)
Assay validation/QC Velcade inhibits NF-κB signaling pathway
Normalization The Firefly luciferase enzyme activities were normalized by Renilla Luciferase expression
Post-HTS analysis Hit criteria κB-luc/ Renilla ratio < 0.5 standard deviations from the […]
Hit rate Approximately 15%
Confirmation of hit purity and structure Compounds were verified by HPLC and NMR
(Reporter assays use an easily measured gene product as a stand-in for the process of interest.)

Test [2] deals with p65 nuclear translocation. In words: Immunofluorescence assay of p65 nuclear translocation. It is filed as cell-based. To be noted: HeLa; 200 nM RA-V 6 h, 10 ng/mL TNF-α 15 min.

Turning to RA-V, the “TNF-α-induced expression of IL-8, MCP-1, and E-selectin” value in test [1] is recorded as “dose-dependently decreased”. The IC50 in the test with NF-κB signaling pathway stood at 64.6 nM. Moreover, the “TNF-α-induced p65 nuclear translocation” value in test [2] was “significantly blocked”.
